From ChEMBL document CHEMBL1201862, “PubChem BioAssay data set” (2004)
Active and inactive are the calls of the source.

Assays:
[1] = molecular target: Cytochrome P450 2C19 (Homo sapiens, UniProt P33261); assay: Cytochrome panel assay with activity outcomes. Panel member name: p450-cyp2c19 Compounds with AC50 equal or less than 10 uM are considered active; assay type: functional
[2] = molecular target: Cytochrome P450 2D6 (Homo sapiens, UniProt P10635);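 further: CYP2D6 member of a cytochrome P450 panel assay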
Sequence of Cytochrome P450 2D6 (P10635 whole entry): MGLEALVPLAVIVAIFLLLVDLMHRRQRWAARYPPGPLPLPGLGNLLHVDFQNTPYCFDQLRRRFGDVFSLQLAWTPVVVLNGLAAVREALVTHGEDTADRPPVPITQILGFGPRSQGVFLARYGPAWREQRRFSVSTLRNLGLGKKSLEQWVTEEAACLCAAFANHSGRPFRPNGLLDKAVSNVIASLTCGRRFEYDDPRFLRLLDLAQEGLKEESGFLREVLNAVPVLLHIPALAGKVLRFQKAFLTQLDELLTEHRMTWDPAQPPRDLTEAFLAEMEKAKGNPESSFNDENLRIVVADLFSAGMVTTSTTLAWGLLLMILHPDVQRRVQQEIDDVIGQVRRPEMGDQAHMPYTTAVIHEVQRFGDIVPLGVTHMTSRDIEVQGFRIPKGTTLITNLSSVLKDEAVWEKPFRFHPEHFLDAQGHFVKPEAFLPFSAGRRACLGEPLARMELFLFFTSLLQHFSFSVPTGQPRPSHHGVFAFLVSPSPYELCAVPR

[3] = molecular target: T1, Short transient receptor potential channel 4 (Mus musculus, UniProt Q9QUQ5); assay: calcium entry via TRPC4 opening agents – cell-based, HEK293 TRPC4/mu-opioid, Fluo-4 calcium, dose response (AID 434937); assay type: functional
T1 sequence (Q9QUQ5 whole entry): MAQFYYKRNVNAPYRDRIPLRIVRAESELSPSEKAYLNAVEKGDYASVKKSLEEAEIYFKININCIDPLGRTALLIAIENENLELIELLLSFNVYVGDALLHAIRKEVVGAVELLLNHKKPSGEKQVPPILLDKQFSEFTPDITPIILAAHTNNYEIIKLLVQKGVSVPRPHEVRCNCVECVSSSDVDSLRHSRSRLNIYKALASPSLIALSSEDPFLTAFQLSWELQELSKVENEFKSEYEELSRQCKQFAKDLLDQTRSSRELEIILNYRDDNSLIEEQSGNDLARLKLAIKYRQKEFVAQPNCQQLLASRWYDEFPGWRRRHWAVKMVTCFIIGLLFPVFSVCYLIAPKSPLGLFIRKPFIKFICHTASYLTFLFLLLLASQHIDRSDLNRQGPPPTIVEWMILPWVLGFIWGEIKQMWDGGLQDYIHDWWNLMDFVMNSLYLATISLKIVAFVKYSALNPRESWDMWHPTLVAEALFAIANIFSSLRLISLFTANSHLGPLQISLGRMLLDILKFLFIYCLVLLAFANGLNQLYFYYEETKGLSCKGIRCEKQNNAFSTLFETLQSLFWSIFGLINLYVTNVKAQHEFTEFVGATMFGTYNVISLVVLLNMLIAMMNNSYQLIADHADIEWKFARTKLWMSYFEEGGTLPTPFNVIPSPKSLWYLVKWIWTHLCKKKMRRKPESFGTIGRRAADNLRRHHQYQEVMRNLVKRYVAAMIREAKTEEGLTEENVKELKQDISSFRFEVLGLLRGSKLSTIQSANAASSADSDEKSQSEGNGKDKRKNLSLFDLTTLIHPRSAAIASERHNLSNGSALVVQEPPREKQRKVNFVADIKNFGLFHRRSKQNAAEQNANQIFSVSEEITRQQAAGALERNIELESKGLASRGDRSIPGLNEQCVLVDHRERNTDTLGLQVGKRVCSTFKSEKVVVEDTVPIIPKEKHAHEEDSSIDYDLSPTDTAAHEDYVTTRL

[4] = molecular target: 5-hydroxytryptamine receptor 5A (Homo sapiens, UniProt P47898); assay: Counterscreen for agonists of OPRM1-OPRD1 heterodimerization: luminescence-based cell-based high throughput dose response assay to identify agonists of 5-hydroxytryptamine (serotonin) 5A receptor (HTR5A). [Related pubchem assays (depositor defined):AID504326, AID504355, AID504692, AID504904, AID504905]; assay type: functional
Sequence of 5-hydroxytryptamine receptor 5A (P47898 whole entry): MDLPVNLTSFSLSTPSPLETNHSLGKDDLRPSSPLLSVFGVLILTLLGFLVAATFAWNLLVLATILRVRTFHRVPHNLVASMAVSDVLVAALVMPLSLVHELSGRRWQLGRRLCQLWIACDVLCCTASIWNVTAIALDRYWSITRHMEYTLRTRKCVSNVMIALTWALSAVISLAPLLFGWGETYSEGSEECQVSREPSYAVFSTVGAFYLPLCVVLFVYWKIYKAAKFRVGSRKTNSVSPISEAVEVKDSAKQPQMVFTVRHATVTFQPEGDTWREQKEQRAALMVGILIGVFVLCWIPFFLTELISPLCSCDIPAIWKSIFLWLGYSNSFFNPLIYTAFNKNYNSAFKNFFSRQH

[5] = molecular target: Delta-type opioid receptor (Homo sapiens, UniProt P41143); assay: Counterscreen for agonists of heterodimerization of the mu 1 (OPRM1) and delta 1 (OPRD1) opioid receptors: Luminescence-based cell-based high throughput dose response assay to identify agonists of OPRD1 homodimerization. [Related pubchem assays (depositor defined):AID504326, AID504355, AID504692, AID504904, AID504905]; assay type: functional
Sequence of Delta-type opioid receptor (P41143 whole entry): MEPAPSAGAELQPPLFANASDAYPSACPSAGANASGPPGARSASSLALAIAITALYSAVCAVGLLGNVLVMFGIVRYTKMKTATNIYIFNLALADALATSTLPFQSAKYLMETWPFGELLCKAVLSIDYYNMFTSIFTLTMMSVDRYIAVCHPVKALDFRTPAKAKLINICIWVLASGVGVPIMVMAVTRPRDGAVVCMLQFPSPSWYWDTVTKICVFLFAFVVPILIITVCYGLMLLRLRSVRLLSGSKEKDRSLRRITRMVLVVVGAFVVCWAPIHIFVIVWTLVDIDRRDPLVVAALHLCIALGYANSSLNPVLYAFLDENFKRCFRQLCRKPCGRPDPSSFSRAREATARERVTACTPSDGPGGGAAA

[6] = molecular target: Mu-type opioid receptor (Homo sapiens, UniProt P35372); assay: Counterscreen for agonists of heterodimerization of the mu 1 (OPRM1) and delta 1 (OPRD1) opioid receptors: Luminescence-based cell-based high throughput dose response assay to identify agonists of OPRM1 homodimerization.; assay type: functional;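 further: U2OS cells expressing OPRM1 and beta-arrestin as split beta-galactosidase partners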
Sequence of Mu-type opioid receptor (P35372 whole entry): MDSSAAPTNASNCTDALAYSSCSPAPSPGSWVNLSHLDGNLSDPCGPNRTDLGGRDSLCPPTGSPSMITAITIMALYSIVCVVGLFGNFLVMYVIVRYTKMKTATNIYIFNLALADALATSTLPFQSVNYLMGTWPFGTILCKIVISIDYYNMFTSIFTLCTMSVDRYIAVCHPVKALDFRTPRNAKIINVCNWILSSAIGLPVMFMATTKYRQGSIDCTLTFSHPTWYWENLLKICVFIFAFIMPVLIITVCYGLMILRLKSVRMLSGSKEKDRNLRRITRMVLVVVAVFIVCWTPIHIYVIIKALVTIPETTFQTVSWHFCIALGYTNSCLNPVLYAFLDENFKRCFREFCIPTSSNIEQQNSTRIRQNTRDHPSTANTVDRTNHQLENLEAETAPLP

[7] = tested on: HEK293; assay: cells; settings: Homo sapiens
[8] = molecular target: Nucleotide-binding oligomerization domain-containing protein 2 (Homo sapiens, UniProt Q9HC29); assay: inhibition of NOD2-driven NF-kB reporter – cell-based, luminescence, uHTS, HEK293 (AID 1566); assay type: functional
Sequence of Nucleotide-binding oligomerization domain-containing protein 2 (Q9HC29 whole entry, the tested form may be a part): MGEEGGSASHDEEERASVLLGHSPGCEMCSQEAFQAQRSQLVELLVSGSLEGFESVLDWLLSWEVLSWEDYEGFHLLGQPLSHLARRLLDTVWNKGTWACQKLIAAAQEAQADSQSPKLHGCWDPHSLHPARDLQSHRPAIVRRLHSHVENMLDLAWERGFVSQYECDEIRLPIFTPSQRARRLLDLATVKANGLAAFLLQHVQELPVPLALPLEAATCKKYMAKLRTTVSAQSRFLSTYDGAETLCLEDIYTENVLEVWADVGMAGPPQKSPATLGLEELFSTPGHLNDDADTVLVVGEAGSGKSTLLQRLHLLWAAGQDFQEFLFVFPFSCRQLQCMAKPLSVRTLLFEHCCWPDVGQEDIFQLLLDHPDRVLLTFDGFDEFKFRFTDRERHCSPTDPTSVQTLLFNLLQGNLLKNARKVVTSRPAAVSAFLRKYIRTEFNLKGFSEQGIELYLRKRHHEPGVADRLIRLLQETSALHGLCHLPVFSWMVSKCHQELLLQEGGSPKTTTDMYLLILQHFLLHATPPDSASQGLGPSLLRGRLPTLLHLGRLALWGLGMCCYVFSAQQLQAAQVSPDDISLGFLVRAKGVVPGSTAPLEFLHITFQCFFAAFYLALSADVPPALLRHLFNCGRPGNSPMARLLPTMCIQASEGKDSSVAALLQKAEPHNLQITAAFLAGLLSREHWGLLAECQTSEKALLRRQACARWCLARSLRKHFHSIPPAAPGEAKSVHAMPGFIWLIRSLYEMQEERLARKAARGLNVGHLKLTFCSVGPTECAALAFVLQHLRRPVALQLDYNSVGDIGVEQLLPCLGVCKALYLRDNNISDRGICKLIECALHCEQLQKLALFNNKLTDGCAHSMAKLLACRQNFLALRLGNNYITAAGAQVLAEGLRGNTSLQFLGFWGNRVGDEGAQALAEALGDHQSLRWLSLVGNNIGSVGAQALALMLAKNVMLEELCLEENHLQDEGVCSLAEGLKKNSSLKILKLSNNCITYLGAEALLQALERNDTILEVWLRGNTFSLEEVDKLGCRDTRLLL

[9] = tested on: HEK293; assay: inhibition of NOD1-driven NF-kB reporter – cell-based, luminescence, uHTS, primary screen (AID 1578); assay type: functional; settings: Homo sapiens
[10] = tested on: HEK293; assay: cells; assay type: functional, cell-based; settings: Homo sapiens
[11] = tested on: HEK293; assay: cells; assay type: functional, cell-based; settings: Homo sapiens; remark: listed apart in the source
[12] = tested on: HEK293; assay: NOD2 signaling inhibitors in MDP-stimulated cells, cell-based, uHTS, luminescence (AID 2001); assay type: functional; settings: Homo sapiens
[13] = molecular target: T2, Heat shock factor protein 1 (Mus musculus, UniProt P38532); assay: decrease of HSF1-responsive luciferase luminescence – cell-based, NIH3T3, dose retest, confirmation (AID 2382); assay type: functional;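 further: NIH3T3 fibroblasts with HSF1-driven luciferase reporter stressed by proteasome inhibitor MG132; luminescence from HSF1-driven luciferase expression after 8 hours of MG132 stress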
T2 sequence (P38532 whole entry): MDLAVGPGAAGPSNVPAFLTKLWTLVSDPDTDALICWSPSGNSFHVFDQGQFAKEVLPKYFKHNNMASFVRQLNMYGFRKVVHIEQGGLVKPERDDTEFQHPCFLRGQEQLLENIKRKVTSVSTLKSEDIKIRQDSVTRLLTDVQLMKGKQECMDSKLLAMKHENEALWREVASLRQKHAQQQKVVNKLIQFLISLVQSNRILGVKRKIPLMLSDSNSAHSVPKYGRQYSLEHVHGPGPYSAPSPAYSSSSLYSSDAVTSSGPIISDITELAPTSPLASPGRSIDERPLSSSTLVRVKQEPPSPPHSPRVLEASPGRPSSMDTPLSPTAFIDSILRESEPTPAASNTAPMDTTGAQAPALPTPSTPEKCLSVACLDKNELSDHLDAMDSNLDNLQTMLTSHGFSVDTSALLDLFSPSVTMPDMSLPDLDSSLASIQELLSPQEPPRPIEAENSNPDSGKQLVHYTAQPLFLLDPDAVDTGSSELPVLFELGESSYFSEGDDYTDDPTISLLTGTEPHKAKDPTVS

[14] = tested on: HEK293; assay: cells; assay type: functional, cell-based; settings: Homo sapiens; remark: listed apart in the source
[15] = non-specific 3'UTR reporter inhibition in Clone20-Shn3RL – cell-based, Renilla luciferase, cherry-picked, counter-screen for Shn3 inhibitor project, dose response (AID 624133); assay type: functional
[16] = reduction of Shn3 3'UTR-driven luciferase in osteoblasts – cell-based, Clone20 osteoblasts, firefly luciferase, cherry-picked, dose response (AID 624132); assay type: functional;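 further: firefly luciferase luminescence from reporter carrying the Shn3 3'UTR in osteoblasts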
[17] = molecular target: T3, Nucleotide-binding oligomerization domain-containing protein 1 (Homo sapiens, UniProt Q9Y239); assay: blockers of NOD1 pathway activity – revised, SAR follow-up (AID 2333); assay type: functional
T3 sequence (Q9Y239 whole entry): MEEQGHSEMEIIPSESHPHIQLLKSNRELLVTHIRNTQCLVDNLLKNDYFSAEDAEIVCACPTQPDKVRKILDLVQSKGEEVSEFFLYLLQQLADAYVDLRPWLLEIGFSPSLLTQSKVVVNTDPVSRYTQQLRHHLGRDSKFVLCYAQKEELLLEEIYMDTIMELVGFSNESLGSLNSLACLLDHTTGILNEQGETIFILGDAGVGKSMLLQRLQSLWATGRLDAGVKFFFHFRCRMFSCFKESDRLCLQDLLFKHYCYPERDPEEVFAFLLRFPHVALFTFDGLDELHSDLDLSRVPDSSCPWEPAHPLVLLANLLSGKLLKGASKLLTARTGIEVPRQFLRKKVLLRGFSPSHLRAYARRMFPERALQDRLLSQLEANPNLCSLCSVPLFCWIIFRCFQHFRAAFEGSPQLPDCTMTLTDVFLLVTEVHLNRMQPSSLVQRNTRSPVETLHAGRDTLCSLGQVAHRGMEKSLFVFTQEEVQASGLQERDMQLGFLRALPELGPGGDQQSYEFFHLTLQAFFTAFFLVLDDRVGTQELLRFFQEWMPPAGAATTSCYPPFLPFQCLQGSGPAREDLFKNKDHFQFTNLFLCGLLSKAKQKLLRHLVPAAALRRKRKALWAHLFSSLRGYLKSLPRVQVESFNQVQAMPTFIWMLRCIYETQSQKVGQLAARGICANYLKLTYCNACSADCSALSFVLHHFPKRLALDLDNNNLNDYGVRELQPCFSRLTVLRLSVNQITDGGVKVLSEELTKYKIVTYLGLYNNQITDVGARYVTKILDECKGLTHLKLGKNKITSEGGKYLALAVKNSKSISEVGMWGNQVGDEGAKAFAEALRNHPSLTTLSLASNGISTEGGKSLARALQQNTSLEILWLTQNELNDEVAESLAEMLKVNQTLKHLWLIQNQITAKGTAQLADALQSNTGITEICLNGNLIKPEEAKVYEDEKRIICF

[18] = molecular target: Tumor necrosis factor (Homo sapiens, UniProt P01375); assay: analog potency on TNFa NF-kB signaling – cell-based, revised, SAR follow-up (AID 2337); assay type: functional
Sequence of Tumor necrosis factor (P01375 whole entry): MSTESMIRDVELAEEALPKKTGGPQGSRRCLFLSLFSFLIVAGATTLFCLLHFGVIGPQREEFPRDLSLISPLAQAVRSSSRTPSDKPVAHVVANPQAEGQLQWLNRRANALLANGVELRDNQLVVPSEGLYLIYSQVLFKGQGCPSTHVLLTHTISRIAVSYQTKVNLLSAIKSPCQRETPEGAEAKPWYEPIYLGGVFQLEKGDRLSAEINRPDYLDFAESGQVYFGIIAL

[19] = tested on: Escherichia coli; assay: microbe, parasite or virus in culture

Sequence of Cytochrome P450 2C19 (P33261 whole entry): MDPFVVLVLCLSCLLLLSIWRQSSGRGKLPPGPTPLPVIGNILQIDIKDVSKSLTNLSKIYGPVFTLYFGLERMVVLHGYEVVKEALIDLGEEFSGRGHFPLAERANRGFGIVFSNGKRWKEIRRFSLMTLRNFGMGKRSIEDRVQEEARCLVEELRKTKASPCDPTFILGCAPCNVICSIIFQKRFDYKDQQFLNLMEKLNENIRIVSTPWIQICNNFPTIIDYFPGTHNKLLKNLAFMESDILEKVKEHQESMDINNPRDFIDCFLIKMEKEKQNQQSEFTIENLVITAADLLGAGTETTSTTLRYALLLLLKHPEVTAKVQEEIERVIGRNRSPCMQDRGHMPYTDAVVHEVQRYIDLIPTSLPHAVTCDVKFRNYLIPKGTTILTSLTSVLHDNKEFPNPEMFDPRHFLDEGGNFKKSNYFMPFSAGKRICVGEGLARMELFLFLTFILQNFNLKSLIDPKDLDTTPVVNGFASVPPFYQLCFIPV

With `COc1ccc(C(C)=O)c(OC(=O)c2ccco2)c1` the AC50 ([1]; read-out: AC50) was 7.94 µM (inconclusive) and the AC50 [2] was “inconclusive”.

With `O=C(O)CCC(=O)Nc1ccc(C(=O)N2CCCCC2)cc1` the AC50 [1] was “inconclusive” and the AC50 [2] was “inconclusive”.

In the case of `O=C(c1sc2ccccc2c1Cl)N(Cc1ccco1)C1CCS(=O)(=O)C1` (configuration not stated), the EC50 [3] is reported as 2.11 µM (active), the EC50 [4] is reported as > 92.5 µM (inactive) and the EC50 [5] is reported as 29.2 µM (inactive). For the same compound, the EC50 [6] was > 92.5 µM (inactive).

For `COc1ccc(C(CNc2ncnc3sc(C)c(C)c23)N(C)C)cc1` (configuration not stated), the EC50 [3] was 0.473 µM (active), the EC50 [4] was > 92.4 µM (inactive) and the EC50 [5] was 70.5 µM (inactive). For the same compound, the EC50 [6] was > 92.4 µM (inactive).

In the case of `Cc1cc(C(=O)COC(=O)c2ccccc2Br)c(C)n1CC1CCCO1` (configuration not stated), the IC50 [7] is reported as > 20 µM (inactive), the EC50 [8] is reported as 0.46 µM (active) and the EC50 [9] is reported as > 20 µM (inactive). The IC50 [10] was < 0.312 µM (active), the IC50 [11] was > 20 µM (inactive) and the IC50 [12] was 0.036 µM (active). For the same compound, the EC50 [13] was < 0.16 µM (active), the IC50 [14] was > 20 µM (inactive) and the AC50 [15] was 21.4 µM (active). The AC50 [16] was > 70 µM (inactive), the IC50 [17] was 4.8 µM (active) and the IC50 [18] was 0.0456 µM (active).

For `O=C(COC(=O)/C=C/c1ccc(F)cc1)Nc1nnc(-c2ccccc2)o1`, the AC50 [19] was 23.2 µM (active).

In the case of `Cc1noc(C)c1COC(=O)c1cccc(S(=O)(=O)N2CCOCC2)c1`, the AC50 [19] is reported as 44.7 µM (active).

With `COC(=O)C1=C(C)N(CCCC(=O)O)C(=O)NC1c1ccccc1OS(=O)(=O)c1ccccc1[N+](=O)[O-]` (configuration not stated) the EC50 [4] was > 92.5 µM (inactive), the EC50 [5] was 15.5 µM (inactive) and the EC50 [6] was > 92.5 µM (inactive).

In the case of `COC(=O)C1=C(C)N(CCCC(=O)O)C(=O)NC1c1ccccc1OS(=O)(=O)c1ccc([N+](=O)[O-])cc1` (configuration not stated), the EC50 [4] is reported as > 92.4 µM (inactive), the EC50 [5] is reported as 11.7 µM (inactive) and the EC50 [6] is reported as > 92.4 µM (inactive).
